Experimental data reported in patent publication US6855730B2, “3-methylidenyl-2-indolinone modulators of protein kinase” (Sugen, Inc., priority 1998, dated 2005).

Target: T1, chimeric receptor containing the EGFR extracellular domain and intracellular HER2 kinase domain (Homo sapiens, UniProt P04626)
T1 construct: fused on or other part: EGFR ectodomain + HER2 intracellular part, ATP-site indolinones: HER2's kinase
Assay: EGF Receptor-HER2 chimeric receptor assay in whole cells (ELISA)
Format: cell-based
Details: read-out: HER-2 kinase IC50
Outline: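 NIH3T3 cells overexpressing EGFR-extracellular/HER2-kinase chimera, seeded in 0.5% serum for ~40 h, were pretreated with compound (1% final DMSO) 2 h at 37 °C, then stimulated with 100 nM EGF for 5 min. Lysates captured on anti-EGFR plates; phosphotyrosine detected by anti-Ptyr/HRP ELISA at 410 nm as percent inhibition.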

T1 sequence (P04626 720-1255 limits assumed, change not shown): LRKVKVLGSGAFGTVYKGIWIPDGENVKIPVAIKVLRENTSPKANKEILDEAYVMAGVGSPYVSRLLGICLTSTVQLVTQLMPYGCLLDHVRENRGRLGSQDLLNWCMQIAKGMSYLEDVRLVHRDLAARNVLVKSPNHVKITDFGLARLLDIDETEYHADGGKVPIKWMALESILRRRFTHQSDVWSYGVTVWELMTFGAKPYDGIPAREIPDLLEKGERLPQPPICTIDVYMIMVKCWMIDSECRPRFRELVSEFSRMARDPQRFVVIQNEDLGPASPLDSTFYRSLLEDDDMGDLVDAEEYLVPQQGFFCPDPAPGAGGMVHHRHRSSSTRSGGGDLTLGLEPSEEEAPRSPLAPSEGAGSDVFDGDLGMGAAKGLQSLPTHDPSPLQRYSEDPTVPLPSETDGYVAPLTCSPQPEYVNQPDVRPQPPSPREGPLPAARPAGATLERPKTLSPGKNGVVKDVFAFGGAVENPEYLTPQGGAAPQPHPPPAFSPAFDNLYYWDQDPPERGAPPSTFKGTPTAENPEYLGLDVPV

IC50 [µM]	SMILES
20.2	CC(=O)Nc1ccc2c(c1)NC(=O)/C2=C\c1ccc2c(c1)CCC(C)(C)O2 [Example 33, N-[3-(2,2-Dimethylchroman-6-ylmethylene)-2-oxo-2,3-dihydro-1H-indol-6-yl]-acetamide]
36.6	CC(=O)Nc1ccc2c(c1)NC(=O)/C2=C/c1ccc(OCCN2CCOCC2)c(-c2cccs2)c1 [Example 40, N-{3-[4-(2-Morpholin-4-ylethoxy)-3-thiophen-2-ylbenzylidene]-2-oxo-2,3-dihydro-1H-indol-6-yl}-acetamide]
47.5	O=C1Nc2ccc(F)cc2/C1=C\c1ccc2c(c1)CCO2 [Example 42, 3-(2,3-Dihydrobenzofuran-5-ylmethylene)-5-fluoro-1,3-dihydroindol-2-one]
52.9	COc1ccc(/C=C2/C(=O)Nc3ccc(F)cc32)cc1C1CCCCC1 [Example 43, 3-(3-Cyclohexyl-4-methoxybenzylidene)-5-fluoro-1,3-dihydroindol-2-one]
53.6	COc1ccc(/C=C2/C(=O)Nc3ccc(F)cc32)cc1C(C)C [Example 44, 5-Fluoro-3-(3-isopropyl-4-methoxybenzylidene)-1,3-dihydroindol-2-one]
56.9	COc1cc(C)c(/C=C2/C(=O)Nc3ncccc32)cc1C(C)C [Example 45, 3-(5-Isopropyl-4-methoxy-2-methylbenzylidene)-1,3-dihydro-pyrrolo[2,3-b]pyridin-2-one]
59.9	CCOc1cccc(-c2cc(C=C3C(=O)Nc4ccccc43)ccc2OC)c1 [Example 46, 3-(3′-Ethoxy-6-methoxybiphenyl-3-ylmethylene)-1,3-dihydroindol-2-one]
60.6	COc1ccc(/C=C2/C(=O)Nc3ncccc32)cc1C1CCCC1 [Example 47, 3-(3-Cyclopentyl-4-methoxybenzylidene)-1,3-dihydropyrrolo[2,3-b]pyridin-2-one]
80.7	COc1c(C(C)C)cc(/C=C2\C(=O)Nc3cccc(C)c32)cc1C(C)C [Example 53, 3-(3,5-Diisopropyl-4-methoxybenzylidene)-4-methyl-1,3-dihydroindol-2-one]
89.3	CC(=O)Nc1ccc2c(c1)NC(=O)/C2=C/c1ccc(OCCN2CCOCC2)c(C(C)(C)C)c1 [Example 55, N-{3-[3-tert-Butyl-4-(2-morpholin-4-ylethoxy)-benzylidene]-2-oxo-2,3-dihydro-1H-indol-6-yl}-acetamide]
96.2	COc1c(C)cc(/C=C2/C(=O)Nc3ncccc32)cc1C [Example 56, 3-(4-Methoxy-3,5-dimethylbenzylidene)-1,3-dihydropyrrolo[2,3-b]pyridin-2-one]
> 100	CC(C)c1cc(/C=C2/C(=O)Nc3ccc(Br)cc32)cc(C(C)C)c1OCCN1CCOCC1 [Example 57, 5-Bromo-3-[3,5-diisopropyl-4-(2-morpholin-4-ylethoxy)benzylidene]-1,3-dihydroindol-2-one]
> 100	COc1cc(/C=C2/C(=O)Nc3ccccc32)c(-c2ccc3ccccc3c2)cc1OC [Example 62, 3-(4,5-Dimethoxy-2-naphthalen-2-ylbenzylidene)-1,3-dihydroindol-2-one]
> 100	COc1ccc(/C=C2/C(=O)Nc3ccccc32)cc1-c1ccccc1 [Example 65, 3-(6-Methoxybiphenyl-3-ylmethylene)-1,3-dihydroindol-2-one]
> 100	COc1ccc(/C=C2/C(=O)Nc3ccc(Cl)cc32)cc1-c1ccccc1 [Example 67, 5-Chloro-3-(6-methoxybiphenyl-3-ylmethylene)-1,3-dihydroindol-2-one]
> 100	COc1ccc(/C=C2\C(=O)Nc3cccc(C)c32)cc1C1CCCCC1 [Example 68, 3-(3-Cyclohexyl-4-methoxybenzylidene)-4-methyl-1,3-dihydroindol-2-one]
> 100	COc1ccc(/C=C2/C(=O)Nc3ncccc32)cc1-c1ccccc1 [Example 71, 3-(6-Methoxybiphenyl-3-ylmethylene)-1,3-dihydropyrrolo[2,3-b]pyridin-2-one]
> 100	COc1c(C(C)C)cc(/C=C2/C(=O)Nc3ncccc32)cc1C(C)C [Example 74, 3-(3,5-Diisopropyl-4-methoxybenzylidene)-1,3-dihydropyrrolo[2,3-b]pyridin-2-one]

The remaining lines, values behind:

SMILES	IC50 [µM]
COc1c(C(C)C)cc(/C=C2/C(=O)Nc3cc(N)ccc32)cc1C(C)C [Example 32, 6-Amino-3-(3,5-diisoprotyl-4-methoxy-benzylidene)-1,3-dihydroindol-2-one]	90.2
COc1ccc(/C=C2/C(=O)Nc3ccccc32)cc1-c1ccsc1 [Example 35, 3-(4-Methoxy-3-thiophen-3-ylbenzylidene)-1,3-dihydroindol-2-one]	20.7
COc1cc(C)c(/C=C2/C(=O)Nc3ccc(Br)cc32)cc1C(C)C [Example 36, 5-Bromo-3-(5-isopropyl-4-methoxy-2-methyl-benzylidene)-1,3-dihydroindol-2-one]	20.7
COc1ccc(/C=C2/C(=O)Nc3ccc(F)cc32)cc1-c1ccccc1 [Example 37, 5-Fluoro-3-(6-methoxybiphenyl-3-ylmethylene)-1,3-dihydroindol-2-one]	22.5
COc1ccc(/C=C2\C(=O)Nc3cccc(C)c32)cc1C(C)C [Example 38, 3-(3-Isopropyl-4-methoxybenzylidene)-4-methyl-1,3-dihydroindol-2-one]	32.3
COc1cc(/C=C2/C(=O)Nc3ccccc32)c(-c2cccs2)cc1OC [Example 39, 3-(4,5-Dimethoxy-2-thiophen-2-ylbenzylidene)-1,3-dihydroindol-2-one]	33.7
Cc1cccc2c1/C(=C/c1ccc3c(c1)CCC(C)(C)O3)C(=O)N2 [Example 41, 3-(2,2-Dimethylchroman-6-ylmethylene)-4-methyl-1,3-dihydroindol-2-one]	39.8
COc1ccc(/C=C2\C(=O)Nc3cccc(C)c32)cc1C1CCCC1 [Example 48, 3-(3-Cyclopentyl-4-methoxybenzylidene)-4-methyl-1,3-dihydroindol-2-one]	65
COc1cc(C=C2C(=O)Nc3ccccc32)c(-c2ccccc2OC)cc1OC [Example 49, 3-(4,5,2′-Trimethoxybiphenyl-2-ylmethylene)-1,3-dihydroindol-2-one]	65.5
CC(=O)Nc1ccc2c(c1)NC(=O)/C2=C/c1ccc(OCCN2CCOCC2)c(-c2ccsc2)c1 [Example 50, N-{3-[4-(2-Morpholin-4-ylethoxy)-3-thiophen-3-ylbenzylidene]-2-oxo-2,3-dihydro-1H-indol-6-yl}-acetamide]	67.6
COc1ccc(/C=C2/C(=O)Nc3ccc(Cl)cc32)cc1C1CCCCC1 [Example 51, 5-Chloro-3-(3-cyclohexyl-4-methoxybenzylidene)-1,3-dihydroindol-2-one]	71.8
COc1c(C(C)C)cc(/C=C2/C(=O)Nc3cc(NC(=O)OC(C)(C)C)ccc32)cc1C(C)C [Example 52, [3-(3,5-Diisopropyl-4-methoxybenzylidene)-2-oxo-2,3-dihydro-1H-indol-6-yl]-carbamic acid tert-butyl ester]	72.8
COc1c(C(C)C)cc(/C=C2/C(=O)Nc3ccc(Br)cc32)cc1C(C)C [Example 54, 5-Bromo-3-(3,5-diisopropyl-4-methoxybenzylidene)-1,3-dihydroindol-2-one]	85.6
CCOc1cccc(-c2cc(OC)c(OC)cc2/C=C2/C(=O)Nc3ccccc32)c1 [Example 58, 3-(3′-Ethoxy-4,5-dimethoxybiphenyl-2-ylmethylene)-1,3-dihydroindol-2-one]	> 100
COc1ccc(/C=C2/C(=O)Nc3ccc(Cl)cc32)cc1-c1cccs1 [Example 59, 5-chloro-3-(4-Methoxy-3-thiophen-2-ylbenzylidene)-1,3-dihydroindol-2-one]	> 100
COc1ccc(/C=C2/C(=O)Nc3ccc(Cl)cc32)cc1-c1cccnc1 [Example 60]	> 100
COc1cccc(-c2cc(OC)c(OC)cc2/C=C2/C(=O)Nc3ccc(Cl)cc32)c1 [Example 61, 5-Chloro-3-(4,5-3′-Trimethoxybiphenyl-2-ylmethylene)-1,3-dihydroindol-2-one]	> 100
COc1ccc2c(c1)NC(=O)/C2=C/c1ccc(OC)c(-c2ccsc2)c1 [Example 64, 6-Methoxy-3-(4-methoxy-3-thiophen-3-ylbenzylidene)-1,3-dihydroindol-2-one]	> 100
O=C1Nc2ccccc2/C1=C\c1ccc2c(c1)CCO2 [Example 66, 3-(2,3-Dihydrobenzofuran-5-ylmethylene)-1,3-dihydroindol-2-one]	> 100
Cc1cccc2c1/C(=C/c1ccc3c(c1)CCO3)C(=O)N2 [Example 69, 3-(2,3-Dihydrobenzofuran-5-ylmethylene)-4-methyl-1,3-dihydroindol-2-one]	> 100
COc1ccc(/C=C2/C(=O)Nc3ncccc32)cc1C(C)C [Example 70, 3-(3-Isopropyl-4-methoxybenzylidene)-1,3-dihydropyrrolo[2,3-b]pyridine-2-one]	> 100
COc1ccc(/C=C2/C(=O)Nc3ncccc32)cc1C1CCCCC1 [Example 72, 3-(3-Cyclohexyl-4-methoxybenzylidene)-1,3-dihydropyrrolo[2,3-b]pyridin-2-one]	> 100
O=C1Nc2ncccc2/C1=C\c1ccc2c(c1)CCO2 [Example 73, 3-(2,3-Dihydrobenzofuran-5-ylmethylene)-1,3-dihydropyrrolo[2,3-b]pyridin-2-one]	> 50
Cc1cc(CCC(=O)O)c(/C=C2\C(=O)Nc3cc(-c4ccc(F)cc4)ccc32)[nH]1 [Example 107, 3-{2-[6-(4-Fluorophenyl)-2-oxo-1,2-dihydroindol-3-ylidenemethyl]-5-methyl-1H-pyrrol-3-yl}propionic acid]	> 100
CCOC(=O)c1c(C)[nH]c(/C=C2\C(=O)Nc3cc(-c4ccc(F)cc4)ccc32)c1CCC(=O)O [Example 108, 4-(2-Carboxyethyl)-5-[6-(4-fluorophenyl)-2-oxo-1,2-dihydro-indol-3-ylidenemethyl]-2-methyl-1H-pyrrole-3-carboxylic acid ethyl ester]	> 100
